Experimental data: PubChem BioAssay (NCI)
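Where inhibition never reached the appropriate level, the endpoint shown equals the highest concentration tested. Otherwise, values were interpolated linearly from a five-concentration, 48-hour dose response in 96-well plates. TGI marks complete inhibition of growth.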

Tests used:
Assay in all cases: NCI anticancer screen, dose series, 48 h
[1] = test system: MDA-MB-435
[2] = test system: 786-0 renal
[3] = test system: MCF7 breast
[4] = test system: NCI-H226 lung
[5] = test system: SK-OV-3 ovarian
[6] = test system: OVCAR-5 ovarian
[7] = test system: SNB-75 CNS
[8] = test system: NCI-H522 lung
[9] = test system: EKVX NSCLC
[10] = test system: MALME-3M melanoma
[11] = test system: LOX IMVI melanoma
[12] = test system: A498 renal
[13] = test system: RXF 393 renal
[14] = test system: SF-268 CNS
[15] = test system: HL-60(TB) leukemia
[16] = test system: KM12 colon
[17] = test system: MDA-MB-231 breast
[18] = test system: SF-295 CNS
[19] = test system: IGROV1 ovarian
[20] = test system: TK-10 renal
[21] = test system: SW-620 colon
[22] = test system: HCT-116 colon
[23] = test system: HCT-15 colon
[24] = test system: CCRF-CEM leukemia
[25] = test system: K-562 leukemia
[26] = test system: UO-31 renal
[27] = test system: MDA-N
[28] = test system: A549 NSCLC
[29] = test system: DU-145 prostate
[30] = test system: U251 CNS
[31] = test system: MOLT-4 leukemia
[32] = test system: NCI/ADR-RES ovarian
[33] = test system: PC-3 prostate
[34] = test system: COLO 205 colon
[35] = test system: SF-539 CNS
[36] = test system: HS 578T breast
[37] = test system: M14 melanoma
[38] = test system: SN12C renal
[39] = test system: OVCAR-4 ovarian
[40] = test system: T-47D breast
[41] = test system: SK-MEL-5 melanoma
[42] = test system: SR leukemia
[43] = test system: HOP-92 NSCLC
[44] = test system: ACHN renal
[45] = test system: UACC-62 melanoma
[46] = test system: UACC-257 melanoma
[47] = test system: NCI-H23 lung
[48] = test system: CAKI-1 renal
[49] = test system: SNB-19 CNS
[50] = test system: HT29 colon
[51] = test system: BT-549 breast
[52] = test system: RPMI-8226 leukemia
[53] = test system: NCI-H460 lung
[54] = test system: HOP-62 NSCLC
[55] = test system: OVCAR-3 ovarian
[56] = test system: OVCAR-8 ovarian
[57] = test system: HCC-2998 colon
[58] = test system: SK-MEL-28 melanoma
[59] = test system: SK-MEL-2 melanoma

C[Si](C)(C)C#Cc1cc(-c2nc3ccccc3s2)ccc1N
TGI [1]: 34.1 µM | TGI [2]: 30.7 µM | TGI [3]: 12 µM | TGI [4]: 31.2 µM | TGI [5]: 41.9 µM | TGI [6]: 33.5 µM | TGI [7]: 27.5 µM | TGI [8]: 27.3 µM | TGI [9]: 25.7 µM | TGI [10]: 23.7 µM | TGI [11]: 34 µM | TGI [12]: 35 µM | TGI [13]: 32.8 µM | TGI [14]: 32.1 µM | TGI [15]: 50 µM | TGI [16]: 34.2 µM | TGI [17]: 38 µM | TGI [18]: 33.7 µM | TGI [19]: 13.2 µM | TGI [20]: 26.2 µM | TGI [21]: 35 µM | TGI [22]: 26.6 µM | TGI [23]: 32.1 µM | TGI [24]: 59.4 µM | TGI [25]: 70.6 µM | TGI [26]: 26.4 µM | TGI [27]: 33.7 µM | TGI [28]: 40.7 µM | TGI [29]: 62.1 µM | TGI [30]: 37.9 µM | TGI [31]: 97.4 µM | TGI [32]: 32.3 µM | TGI [33]: 34.2 µM | TGI [34]: 29.5 µM | TGI [35]: 34.5 µM | TGI [36]: 51 µM | TGI [37]: 31 µM | TGI [38]: 30.1 µM | TGI [39]: 29.8 µM | TGI [40]: > 100 µM | TGI [41]: 29.4 µM | TGI [42]: 67.8 µM | TGI [43]: 27.8 µM | TGI [44]: 29.1 µM | TGI [45]: 33.2 µM | TGI [46]: 34.8 µM | TGI [47]: 40.6 µM | TGI [48]: 31 µM | TGI [49]: 34.6 µM | TGI [50]: 38.6 µM | TGI [51]: 33.1 µM | TGI [52]: 48.3 µM | TGI [53]: 31.1 µM | TGI [54]: 29.9 µM | TGI [55]: 39.2 µM | TGI [56]: 32.3 µM

COC(=O)CCC(C)[C@H]1CCC2C3C(C[C@H](OC(C)=O)[C@@]21C)[C@@]1(C)CCC2(C[C@H]1C[C@H]3OC(C)=O)OOC1(CCCC1)OO2 (some centres not stated)
TGI [1]: > 100 µM | TGI [2]: > 100 µM | TGI [3]: > 100 µM | TGI [57]: > 100 µM | TGI [4]: > 100 µM | TGI [5]: > 100 µM | TGI [6]: > 100 µM | TGI [7]: > 100 µM | TGI [8]: > 100 µM | TGI [9]: 56.4 µM | TGI [10]: > 100 µM | TGI [11]: > 100 µM | TGI [12]: > 100 µM | TGI [13]: > 100 µM | TGI [14]: > 100 µM | TGI [15]: 54.3 µM | TGI [16]: > 100 µM | TGI [17]: > 100 µM | TGI [18]: > 100 µM | TGI [19]: 25.4 µM | TGI [20]: > 100 µM | TGI [21]: > 100 µM | TGI [22]: > 100 µM | TGI [23]: > 100 µM | TGI [24]: > 100 µM | TGI [25]: > 100 µM | TGI [26]: 27.8 µM | TGI [27]: > 100 µM | TGI [28]: > 100 µM | TGI [29]: > 100 µM | TGI [30]: > 100 µM | TGI [31]: > 100 µM | TGI [32]: > 100 µM | TGI [33]: > 100 µM | TGI [34]: > 100 µM | TGI [35]: > 100 µM | TGI [36]: > 100 µM | TGI [37]: > 100 µM | TGI [38]: > 100 µM | TGI [39]: 87.6 µM | TGI [40]: 75 µM | TGI [41]: > 100 µM | TGI [58]: > 100 µM | TGI [42]: 15.4 µM | TGI [43]: 64.8 µM | TGI [44]: > 100 µM | TGI [46]: > 100 µM | TGI [47]: > 100 µM | TGI [48]: 92 µM | TGI [49]: > 100 µM | TGI [59]: > 100 µM | TGI [50]: > 100 µM | TGI [51]: > 100 µM | TGI [52]: 9.44 µM | TGI [53]: > 100 µM | TGI [54]: 29.9 µM | TGI [55]: > 100 µM | TGI [56]: > 100 µM

CCN(CC)CCC(=O)c1ccc(Sc2ccc(F)cc2)cc1
TGI [1]: 32.4 µM | TGI [2]: 23.6 µM | TGI [3]: 31 µM | TGI [57]: 89.6 µM | TGI [4]: 39.2 µM | TGI [5]: 45 µM | TGI [6]: 39.3 µM | TGI [7]: 32.2 µM | TGI [8]: 35.8 µM | TGI [9]: 41.8 µM | TGI [10]: 33.4 µM | TGI [11]: 37.2 µM | TGI [12]: 45.7 µM | TGI [13]: 35.1 µM | TGI [14]: 35.1 µM | TGI [15]: 50.5 µM | TGI [16]: 30.6 µM | TGI [17]: 34 µM | TGI [18]: 35.1 µM | TGI [19]: 35 µM | TGI [20]: 27.9 µM | TGI [21]: 41.2 µM | TGI [22]: 33.6 µM | TGI [23]: 33.4 µM | TGI [24]: 34 µM | TGI [25]: > 100 µM | TGI [26]: 31.9 µM | TGI [27]: 49 µM | TGI [28]: > 100 µM | TGI [29]: 36.1 µM | TGI [30]: 31.1 µM | TGI [31]: 33.5 µM | TGI [32]: 71.1 µM | TGI [33]: 33.6 µM | TGI [34]: 41.9 µM | TGI [35]: 32.9 µM | TGI [36]: 30.8 µM | TGI [37]: 54.6 µM | TGI [38]: 46.8 µM | TGI [39]: 42.9 µM | TGI [40]: 42.9 µM | TGI [41]: 34.5 µM | TGI [58]: 34.3 µM | TGI [42]: 48.6 µM | TGI [44]: 33.2 µM | TGI [45]: 31.1 µM | TGI [46]: 31 µM | TGI [47]: 33.9 µM | TGI [48]: 29.5 µM | TGI [49]: 34 µM | TGI [59]: 45.1 µM | TGI [50]: 85.2 µM | TGI [51]: 31.6 µM | TGI [52]: 9.74 µM | TGI [53]: 41.1 µM | TGI [54]: 41.4 µM | TGI [55]: 40.9 µM | TGI [56]: 48.1 µM
